Test results reported in PubChem BioAssay (NCI).
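Test compounds were applied to cells in 96-well plates for 48 hours at 5 doses. TGI denotes the concentration required for complete inhibition of growth.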

Columns and labels:
Assay in all cases: growth of human tumour cells (NCI), 48 h
786-0 renal = test system: 786-0 renal
A498 renal = test system: A498 renal
A549 NSCLC = test system: A549 NSCLC
ACHN renal = test system: ACHN renal
BT-549 breast = test system: BT-549 breast
CAKI-1 renal = test system: CAKI-1 renal
CCRF-CEM leukemia = test system: CCRF-CEM leukemia
COLO 205 colon = test system: COLO 205 colon
DU-145 prostate = test system: DU-145 prostate
EKVX NSCLC = test system: EKVX NSCLC
HCT-15 colon = test system: HCT-15 colon
HL-60(TB) leukemia = test system: HL-60(TB) leukemia
HOP-62 NSCLC = test system: HOP-62 NSCLC
HOP-92 NSCLC = test system: HOP-92 NSCLC
HS 578T breast = test system: HS 578T breast
HT29 colon = test system: HT29 colon
IGROV1 ovarian = test system: IGROV1 ovarian
K-562 leukemia = test system: K-562 leukemia
KM12 colon = test system: KM12 colon
LOX IMVI melanoma = test system: LOX IMVI melanoma
M14 melanoma = test system: M14 melanoma
MALME-3M melanoma = test system: MALME-3M melanoma
MDA-MB-231 breast = test system: MDA-MB-231 breast
MDA-MB-435 = test system: MDA-MB-435
MDA-N = test system: MDA-N
MOLT-4 leukemia = test system: MOLT-4 leukemia
NCI-H23 lung = test system: NCI-H23 lung
NCI-H460 lung = test system: NCI-H460 lung
NCI-H522 lung = test system: NCI-H522 lung
NCI/ADR-RES ovarian = test system: NCI/ADR-RES ovarian
OVCAR-3 ovarian = test system: OVCAR-3 ovarian
OVCAR-4 ovarian = test system: OVCAR-4 ovarian
OVCAR-5 ovarian = test system: OVCAR-5 ovarian
OVCAR-8 ovarian = test system: OVCAR-8 ovarian
PC-3 prostate = test system: PC-3 prostate
RPMI-8226 leukemia = test system: RPMI-8226 leukemia
SF-268 CNS = test system: SF-268 CNS
SF-295 CNS = test system: SF-295 CNS
SF-539 CNS = test system: SF-539 CNS
SK-MEL-2 melanoma = test system: SK-MEL-2 melanoma
SK-MEL-28 melanoma = test system: SK-MEL-28 melanoma
SK-MEL-5 melanoma = test system: SK-MEL-5 melanoma
SK-OV-3 ovarian = test system: SK-OV-3 ovarian
SN12C renal = test system: SN12C renal
SNB-19 CNS = test system: SNB-19 CNS
SNB-75 CNS = test system: SNB-75 CNS
SR leukemia = test system: SR leukemia
SW-620 colon = test system: SW-620 colon
T-47D breast = test system: T-47D breast
TK-10 renal = test system: TK-10 renal
U251 CNS = test system: U251 CNS
UACC-257 melanoma = test system: UACC-257 melanoma
UACC-62 melanoma = test system: UACC-62 melanoma
UO-31 renal = test system: UO-31 renal

With `Cc1c2ccccc2nc2[nH]c3ccncc3c12` the TGI (786-0 renal) was 71.5 µM, the TGI (A498 renal) was > 100 µM and the TGI (A549 NSCLC) was > 100 µM. The TGI (ACHN renal) was 77.2 µM, the TGI (BT-549 breast) was > 100 µM and the TGI (CAKI-1 renal) was 96.7 µM. The TGI (CCRF-CEM leukemia) was 10.9 µM, the TGI (COLO 205 colon) was > 100 µM and the TGI (DU-145 prostate) was > 100 µM. The TGI (EKVX NSCLC) was 98.5 µM, the TGI (HCT-15 colon) was > 100 µM and the TGI (HL-60(TB) leukemia) was > 100 µM. For the same molecule, the TGI (HOP-62 NSCLC) was 62 µM, the TGI (HOP-92 NSCLC) was 79.6 µM and the TGI (HS 578T breast) was > 100 µM. The TGI (HT29 colon) was > 100 µM, the TGI (IGROV1 ovarian) was > 100 µM and the TGI (K-562 leukemia) was > 100 µM. The TGI (KM12 colon) was > 100 µM, the TGI (LOX IMVI melanoma) was 45.4 µM and the TGI (M14 melanoma) was 85.7 µM. The TGI (MALME-3M melanoma) was 66.6 µM, the TGI (MDA-MB-231 breast) was > 100 µM and the TGI (MDA-MB-435) was > 100 µM. The TGI (MDA-N) was > 100 µM, the TGI (MOLT-4 leukemia) was > 100 µM and the TGI (NCI-H23 lung) was 74.3 µM. For the same molecule, the TGI (NCI-H460 lung) was 39.8 µM, the TGI (NCI-H522 lung) was > 100 µM and the TGI (NCI/ADR-RES ovarian) was 72.4 µM. The TGI (OVCAR-3 ovarian) was 91.9 µM, the TGI (OVCAR-4 ovarian) was > 100 µM and the TGI (OVCAR-5 ovarian) was 95 µM. For the same molecule, the TGI (OVCAR-8 ovarian) was > 100 µM, the TGI (PC-3 prostate) was > 100 µM and the TGI (RPMI-8226 leukemia) was 77.7 µM. For the same molecule, the TGI (SF-268 CNS) was 32.8 µM, the TGI (SF-295 CNS) was > 100 µM and the TGI (SF-539 CNS) was > 100 µM. For the same molecule, the TGI (SK-MEL-2 melanoma) was > 100 µM, the TGI (SK-MEL-28 melanoma) was > 100 µM and the TGI (SK-MEL-5 melanoma) was 95 µM. The TGI (SK-OV-3 ovarian) was > 100 µM, the TGI (SN12C renal) was 85.1 µM and the TGI (SNB-19 CNS) was > 100 µM. For the same molecule, the TGI (SNB-75 CNS) was > 100 µM, the TGI (SR leukemia) was > 100 µM and the TGI (SW-620 colon) was > 100 µM. The TGI (T-47D breast) was > 100 µM, the TGI (TK-10 renal) was 59.4 µM and the TGI (U251 CNS) was > 100 µM. The TGI (UACC-257 melanoma) was > 100 µM, the TGI (UACC-62 melanoma) was 74.8 µM and the TGI (UO-31 renal) was > 100 µM.
